{
  "source": "paper PMC8148554",
  "about": "“Characterization and Regulation of the Acetolactate Synthase Genes Involved in Acetoin Biosynthesis in Acetobacter pasteurianus” (Foods, 2021)",
  "target": "T1, AlsS2 (Acetobacter pasteurianus, UniProt A0A401X088)",
  "T1 construct": "gene NBRC3278_0356; full length, gene 1695 bp (564 residues with stop codon in the gene); pET-22b(+) NdeI/XhoI, E. coli BL21(DE3), His tag (C-terminal by cloning, no stop in primer); about 59 kDa",
  "T1 sequence (A0A401X088 1-564)": "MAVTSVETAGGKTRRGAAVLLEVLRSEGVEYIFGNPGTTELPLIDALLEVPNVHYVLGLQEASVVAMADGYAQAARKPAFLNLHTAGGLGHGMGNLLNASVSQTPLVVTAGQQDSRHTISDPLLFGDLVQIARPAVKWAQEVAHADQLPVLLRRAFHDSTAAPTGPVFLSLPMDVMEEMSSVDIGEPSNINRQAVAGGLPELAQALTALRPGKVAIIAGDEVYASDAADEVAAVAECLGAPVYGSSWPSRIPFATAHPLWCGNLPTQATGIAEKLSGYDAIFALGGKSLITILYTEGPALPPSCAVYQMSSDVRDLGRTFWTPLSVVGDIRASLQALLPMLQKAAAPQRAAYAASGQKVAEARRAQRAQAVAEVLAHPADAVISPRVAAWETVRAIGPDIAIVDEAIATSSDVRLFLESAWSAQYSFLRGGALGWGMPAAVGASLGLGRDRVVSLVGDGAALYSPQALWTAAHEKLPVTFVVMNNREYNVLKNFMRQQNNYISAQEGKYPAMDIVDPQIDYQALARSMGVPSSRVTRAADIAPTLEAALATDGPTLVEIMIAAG",
  "experiment": "GC detection of benzaldehyde formed",
  "assay_type": "biochemical",
  "settings": "10 mM benzoylformate, 0.5 mM MgCl2, 1 mM TPP, 100 mM sodium phosphate pH 7.0, 37 °C, 10 h",
  "data": [
    {"smiles": "O=C(O)C(=O)c1ccccc1", "note": "[benzoylformate]", "values": [
      {"measurement": "GC detection of benzaldehyde formed", "result": "Benzaldehyde was detected in the reaction mixture"}
    ]}
  ]
}
